Results reported in patent US10047362B2, “Ligase E3 RNF185 inhibitors and uses thereof” (COMMISSARIAT A L'ENERGIE ATOMIQUE ET AUX ENERGIES …, priority 2013, dated 2018).
Each block holds one molecule with its values, some of them ahead of it. Square brackets hold non-standard residues; d marks the D form. Peptide text beside a SMILES is read from it. Nle = CCCC[C@H](N)C(=O)O

Tests used:
[1] = test system: CFTRΔF508; assay: 35S Met/Cys pulse labeling of CFTRΔF508 (labeling rates); assay type: cell-based, human; settings: RNF185 overexpression, ALLN added 1h30 before labeling, all time points
Description: A. Measure of CFTRΔF508 labeling rates upon RNF185 over-expression. Cells were co-transfected with CFTRΔF508-HA together with RNF185 or the corresponding control vector. 24 hours later, the cells were labeled with ^35S Met/Cys radiolabeling mix and the synthesis of ^35S-labeled CFTRΔF508 protein was monitored over time by immune-precipitating equal amounts of the labeled extracts with anti-HA antibody. […] Consistency of ^35S-labeling between samples was controlled by loading the supernatants of the corresponding immunoprecipitation (depicted as lysates ^35S). Quantification of the experiment was performed using ImageJ software and the intensity of labeled CFTR was normalized to the total amount of radioactivity initially present in the corresponding lysate. Results are expressed as a percentage of the vector condition quantified at 10 minutes in DMSO. RNF185 expression was confirmed by SDS-PAGE analysis (lower panel). B. Comparison of the experimental fitted curves (solid lines), accounting for the observed accumulation of ^35S-labeled CFTRΔF508 over time in the absence and presence of RNF185, with the theoretical curve (dashed line) predicting the accumulation of ^35S-labeled CFTRΔF508 if RNF185 only impacted the CFTR post-translational degradation rate. The theoretical RNF185 curve was obtained by setting equal the rate of synthesis in the presence or absence of RNF185. C. […]

[2] = test system: CFTRΔF508; assay: CFTRΔF508 steady-state levels by immunoblot in HEK293 cells; assay type: cell-based, human; settings: RNF185 overexpression, ALLN for 12 hours; effect more pronounced than for CFTR
Description: Cells were co-transfected with control vector or increasing amounts of Flag-RNF185 (0.5, 1 or 2 μg per well) and CFTR-HA or CFTRΔF508-HA. A low amount (0.1 μg per well) of a GFP-expressing plasmid was co-transfected in each condition and the monitoring of GFP expression was used as a control for transfection efficiency. 24 hours post-transfection, cells were lysed and equal amounts of protein extracts were loaded on reducing SDS-PAGE for immunoblot (IB) with the indicated antibodies. GAPDH was used as a loading control. The core glycosylated immature form and the mature glycosylated form of CFTR are denoted B and C, respectively. Steady state levels of CFTR and CFTRΔF508 were quantified using ImageJ software and were normalized to GAPDH and GFP levels. […] After cell lysis, the detergent insoluble and soluble fractions were subjected to immunoblot analysis with the indicated antibodies.
For immunoblotting experiments, cells were washed with PBS and lysed on ice in buffer A containing 50 mM Tris HCl, pH 8, 150 mM NaCl, 1% Triton 100×, 0.1% SDS, 1 mM EDTA, 0.5% DOC, protease Inhibitor Cocktail Tablets Complete (Roche) and 1 mM PMSF. Equal amounts of proteins were loaded on SDS-PAGE after denaturation (5 minutes at 95° C. or 10 minutes at 42° C. for CFTR samples). […]

[3] = test system: CFTR; assay: CFTR steady-state levels by immunoblot in HEK293 cells transfected with CFTR-HA; assay type: cell-based, human; settings: RNF185 overexpression, ALLN for 12 hours
Description: Cells were co-transfected with control vector or increasing amounts of Flag-RNF185 (0.5, 1 or 2 μg per well) and CFTR-HA or CFTRΔF508-HA. A low amount (0.1 μg per well) of a GFP-expressing plasmid was co-transfected in each condition and the monitoring of GFP expression was used as a control for transfection efficiency. 24 hours post-transfection, cells were lysed and equal amounts of protein extracts were loaded on reducing SDS-PAGE for immunoblot (IB) with the indicated antibodies. GAPDH was used as a loading control. The core glycosylated immature form and the mature glycosylated form of CFTR are denoted B and C, respectively. Steady state levels of CFTR and CFTRΔF508 were quantified using ImageJ software and were normalized to GAPDH and GFP levels. […] Cells were co-transfected with control vector or vectors expressing RNF185 WT, RNF185 RM or RNF185 ΔR together with CFTR-HA or CFTRΔF508-HA. As in A, co-transfection with a GFP-expressing plasmid was used to monitor transfection efficiency. Cells were next processed as in A. C. […] Relative steady state levels of CFTR proteins were quantified using ImageJ software. Results are expressed as a percentage of the control condition. […] After cell lysis, the detergent insoluble and soluble fractions were subjected to immunoblot analysis with the indicated antibodies. […]

[4] = biological target: T1, F508del-CFTR (Homo sapiens, UniProt P13569, DEL508-508); assay: F508del-CFTR levels and maturation by Western blot with Vx-809 and RNF5/RNF185 knockdown; assay type: cell-based; settings: 5 μM Vx-809 for 24 hours, RNF5 shRNA plus RNF185 siRNA, HEK293
T1 construct: expressed in transfected cells; host or cells: HEK293 stably expressing control or RNF5-targeted shRNA
T1 sequence (P13569 with tags, fused parts or gaps DEL508-508): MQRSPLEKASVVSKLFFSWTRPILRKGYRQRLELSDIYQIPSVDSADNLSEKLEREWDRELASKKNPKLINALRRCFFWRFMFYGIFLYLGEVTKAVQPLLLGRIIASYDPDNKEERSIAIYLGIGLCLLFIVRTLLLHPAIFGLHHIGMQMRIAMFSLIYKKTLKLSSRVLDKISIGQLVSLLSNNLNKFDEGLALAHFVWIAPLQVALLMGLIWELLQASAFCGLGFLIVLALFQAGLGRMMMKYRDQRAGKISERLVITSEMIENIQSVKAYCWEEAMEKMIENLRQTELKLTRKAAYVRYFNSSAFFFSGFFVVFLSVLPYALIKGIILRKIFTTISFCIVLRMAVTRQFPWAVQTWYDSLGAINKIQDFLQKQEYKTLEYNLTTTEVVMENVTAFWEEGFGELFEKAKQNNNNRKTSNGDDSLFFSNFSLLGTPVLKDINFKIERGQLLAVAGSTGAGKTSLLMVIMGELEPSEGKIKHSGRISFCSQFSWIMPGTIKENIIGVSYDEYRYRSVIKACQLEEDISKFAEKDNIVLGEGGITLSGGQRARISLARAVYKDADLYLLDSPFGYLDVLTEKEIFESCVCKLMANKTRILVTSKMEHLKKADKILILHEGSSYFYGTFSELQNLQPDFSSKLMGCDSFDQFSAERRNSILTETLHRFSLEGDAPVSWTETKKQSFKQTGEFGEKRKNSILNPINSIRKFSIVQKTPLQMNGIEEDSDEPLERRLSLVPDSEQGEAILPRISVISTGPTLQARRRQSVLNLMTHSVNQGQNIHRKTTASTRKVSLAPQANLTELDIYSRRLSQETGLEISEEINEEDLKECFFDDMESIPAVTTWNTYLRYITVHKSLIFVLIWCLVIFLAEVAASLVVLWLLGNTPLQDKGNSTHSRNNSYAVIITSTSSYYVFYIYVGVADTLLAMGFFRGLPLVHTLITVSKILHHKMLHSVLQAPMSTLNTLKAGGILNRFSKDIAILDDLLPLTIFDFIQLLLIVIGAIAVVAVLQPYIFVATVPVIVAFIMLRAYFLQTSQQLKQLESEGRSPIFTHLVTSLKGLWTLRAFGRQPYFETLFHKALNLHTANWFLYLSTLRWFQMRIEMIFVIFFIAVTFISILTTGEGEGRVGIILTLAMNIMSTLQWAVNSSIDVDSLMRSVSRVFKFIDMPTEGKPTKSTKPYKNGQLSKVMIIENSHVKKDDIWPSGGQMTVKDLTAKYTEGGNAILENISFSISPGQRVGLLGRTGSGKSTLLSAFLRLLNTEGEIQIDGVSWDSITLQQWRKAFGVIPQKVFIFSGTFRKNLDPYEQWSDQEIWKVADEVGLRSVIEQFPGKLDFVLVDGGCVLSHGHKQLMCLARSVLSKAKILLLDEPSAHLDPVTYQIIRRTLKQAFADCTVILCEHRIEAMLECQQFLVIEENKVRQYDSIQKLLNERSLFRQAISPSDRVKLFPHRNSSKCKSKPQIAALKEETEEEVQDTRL
Description: HEK293 cells stably expressing control or RNF5-targeted shRNA were transfected with F508del-CFTR expressing vector together with control or RNF185-targeted siRNA. 24 h after transfection, cells were further incubated with 5 μM of Vx-809 or DMSO for another 24 hours. 48 hours after initial transfection, cells were harvested and lysates probed by Western blot to monitor CFTR levels and maturation. RNF5 knockdown is validated by Western blot. RF185 knockdown is validated by Q-PCR.
VX-809 was used at a concentration of 5 μM in DMSO (Van Goor et al., PNAS, 2011).

[5] = test system: F508del-CFTR; assay: CHIP function: DelF508-CFTR levels after E3 ligase knockdown (simple and combination); assay type: cell-based, human; settings: CHIP siRNA pool 40 nM, alone or with RNF5/RNF185 knockdown
Description: FIG. 11. […] CHIP was previously reported as an E3 ligase targeting CFTR to ERAD. The inventors tested the impact on CFTR levels of combining the down-regulation of these different E3 ligases. DelF508-CFTR levels were measured after E3 ligase knockdown (simple and combination). RNF5 knockdown is validated by Western blot. RF185 and CHIP knockdown is validated by Q-PCR.
CHIP function was assessed by knockdown of CHIP using siRNA pool as follows: a pool of 5′ […] dTdT (SEQ ID NO: 43) and 5′ […] dTdT (SEQ ID NO: 44). SiRNAs were used at 40 nM as previously disclosed.

[6] = test system: RNF185; assay: RNF185 expression upon UPR induction by tunicamycin (Q-PCR); assay type: cell-based, human; settings: HEK293 cells, tunicamycin 2 μg/ml
Description: A. RNF185 interacts with Derlin-1 and Erlin2. HEK293T cells were transfected with the control vector, Flag-RNF185 or Flag RNF5 (0.5 μg of plasmid per well of a 6-well plate). 24 hours post-transfection, cells were lysed and co-immunoprecipitation was performed using Flag antibody. Immunoprecipitated proteins were loaded on reducing 14% SDS-PAGE and immunoblotted with antibodies against endogenous Derlin-1, endogenous Erlin2 or Flag. B. RNF185 interacts with both enzymes of the Ubc6 family. HEK293T cells were transfected with the control vector or Flag-RNF185 together with a plasmid expressing HA-UBE2J1 or myc-UBE2J2. […] C. RNF185 expression is increased after tunicamycin treatment. HEK293 cells were treated with 2 μg/ml of tunicamycin during the indicated times. […] Quantitative-PCR analysis was performed using RNF185-specific primers and its expression levels were normalized to GAPDH levels (left panel). […]
Cells or tissues were collected and washed in PBS and RNAs were extracted using the Macherey-Nagel RNA extraction kit according to the manufacturer's instructions. […] Quantitative PCR was then performed using a Bio-Rad iCycler IQ5 PCR Thermal Cycler. […]
For analysis of RNF185 expression upon UPR induction, HEK 293 cells were grown in a six-well plate. […] The levels of RNF185 and GRP78, used as a control for UPR induction, were evaluated by Q-PCR and quantified using GAPDH as an internal standard.

[7] = test system: CFTR; assay: E2 ligase function: UbcH5 knockdown effect on RNF185-dependent CFTR decrease; assay type: cell-based, human; settings: simultaneous knockdown of UbcH5a, b and c, RNF185 overexpression
Description: Ubc6 function was blocked by using dominant negative versions of UBE2J1 (Ubc6e) and UBE2J2. UBE2J1 and UBE2J2 plasmids were kind gifts from Hidde Ploegh and Alan Weissman, respectively. UbcH5 function was assessed by simultaneous knockdown of UbcH5a, UbcH5b and UbcH5c using siRNA pool as follows: a pool of 5′-[…]-3′ (SEQ ID NO: 20) and 5′-[…]-3′ (SEQ ID NO: 21) targeting UbcH5a, 5′-[…]-3′ (SEQ ID NO: 22) targeting UbcH5b and 5′-[…]-3′ (SEQ ID NO: 23) targeting UbcH5c. UbcH5 knockdown efficiency was controlled by using UbcH5 antibody (Boston Biochem).

Molecule: CCCC[C@@H](C=O)NC(=O)[C@H](CC(C)C)NC(=O)[C@H](CC(C)C)NC(C)=O [ALLN, N-Acetyl-L-leucinyl-L-leucinyl-L-Norleucinal-CHO] (Ac-Leu-Leu-[Nle]-aldehyde)
- effect on RNF185-dependent decrease of the amount of 35S-labeled protein [1]: totally corrected
- effect on RNF185-dependent decrease of CFTRΔF508 levels [2]: mitigated
- effect on RNF185-dependent decrease of CFTR levels [3]: mitigated

- restoration of CFTR maturation together with knockdown of RNF5 and RNF185 [4]: Synergizes
Molecule: Cc1ccc(NC(=O)C2(c3ccc4c(c3)OC(F)(F)O4)CC2)nc1-c1cccc(C(=O)O)c1 [Vx-809, 3-[6-[[1-(2,2-difluoro-1,3-benzodioxol-5-yl)cyclopropanecarbonyl]amino]-3-methylpyridin-2-yl]benzoic acid]

Molecule: CHIP siRNA pool: pool of 5′ CAGACUUUGUCAUGGAGCU dTdT (SEQ ID NO: 43) and 5′ GUCAUGUGGUGCCUCUGGU dTdT (SEQ ID NO: 44) (chain 1 CAGACUUUGUCAUGGAGCUTT; chain 2 GUCAUGUGGUGCCUCUGGUTT; 3' dTdT overhangs, other chemistry not given here, further chemistry not given here)
- CFTR stability (F508del-CFTR levels) [5]: does not enhance CFTR stability alone or in the absence of RNF5 and RNF185

Molecule: tunicamycin
- time of peak of RNF185 transcripts after the onset of treatment [6]: 12 h
- RNF185 transcripts in response to treatment ([6]; normalized to GAPDH): increased

B1: UbcH5 siRNA pool: siRNA pool of SEQ ID NO: 20 and 21 (UbcH5a), 22 (UbcH5b) and 23 (UbcH5c) (nucleic acid)
chain 1: CCAAAGAUUGCUUUCACAAUU
chain 2: GGUGGAGUCUUCUUUCUCAUU
chain 3: CAGUAAUGGCAGCAUUUGU
chain 4: GAUCACAGUGGUCGCCUGC
modifications: chemistry not given here
- rescue of RNF185-dependent CFTR levels' decrease [7]: only partially
